Measurements as given in patent US20250282720A1, “ALKYLSULFENYL THIOCARBONATES: PRECURSORS TO HYDROPERSULFIDES POTENTLY ATTENUATE OXIDATIVE STRESS” (The Johns Hopkins University, priority 2021, published 2025).

Legend:
[1] = Kinetics of RSSH release (precursor hydrolysis) in the presence of MMTS, monitored by HPLC; assay type: physicochemical
Protocol: After confirming RSSH generation from 1a, the kinetics of RSSH release from alkylsulfenyl thiocarbonates in the presence of MMTS was analyzed by high-performance liquid chromatography (HPLC). Due to the lack of a chromophore in MMTS adduct 7, the decay of the RSSH precursor and formation of the corresponding phenol byproduct was monitored. First-order rate constants were obtained by plotting the precursor decay and phenol byproduct formation as a function of time. […] The observation of similar rate constants for both 1a decay and phenol (4a) formation indicates a rapid reaction of relased RSSH with MMTS, and that these observed rate constants indicate the RSSH release rate. Importantly, 92% of the byproduct phenol 4a is observed. In addition, the effect of pH on the kinetics of RSSH release also was examined.
The RSSH release kinetics for precursors containing a variety of para-substituted phenols were then compared. It was hoped to decrease the rate of RSSH release through the introduction of electron-donating groups. Indeed, a small decrease in the RSSH release rate from 1b, equipped with a 4-Me substituent (137±4 min) (Table 1) was observed.
MMTS (100 μL, 50 mM) was added in pH 7.4 phosphate buffer saline (4.85 mL) containing the DTPA (100 μM) as metal chelator. This solution was preincubated for 10 min at 37° C. and then precursor 1a-f or 8 (50 μL, 10 mM) were independently added into the mixture (total volume=5 mL). The resulting solution was incubated at 37° C. At different time points, an aliquot of 300 μL was taken and quenched with 300 μL 0.1% formic acid solution. These samples were stored at 0° C. until HPLC analysis was performed. The sample (20 μL) was injected into a high-performance liquid chromatography (HPLC) equipped with Phenomenex C-18 reverse phase column (250 mm×4.6 mm, 5 μm). HPLC Method: mobile phase A (H2O) and mobile phase B (ACN), flow rate: 1 mL/min, run time: 21 min, the gradient elution method: 10% to 70% B from 0 to 10 min, 70% to 90% B from 10 to 21 min. The elution was monitored by a UV detector at 240 and 275 nm. First-order rate constants were obtained by plotting the precursor decay and phenol by-product formation as a function of time.

[2] = test system: FA fibroblasts (GM04078); assay: Cytoprotection against H2O2 stress in FA fibroblasts, CCK8; assay type: cell-based, human; details: 4 h pretreatment, H2O2 75 μM for 4 h
Protocol: FIG. 10A, pretreatment of AST with varying concentrations in FA fibroblasts (GM04078, Coriell Institute) for 4 h followed by 4 h treatment with H2O2. Viability was measured using CCK8 assay. FIG. 10B, pretreatment of AST with varying concentrations in FA fibroblasts for 4 h followed by treatment with erastin for 24 h. […] Group comparisons are determined by a one-way analysis of variance (ANOVA) with Dunnet's correction post-hoc test using GraphPad Prism 8;
Initially, we measured the cytotoxicity of AST in FA skin fibroblasts (GM04078), obtained from the Coriell Institute, to ensure that the RSSH donor itself is not cytotoxic. […] We then measured the ability of AST to confer cytoprotection in FA fibroblasts against hydrogen peroxide (H2O2) stress.

[3] = test system: H9c2 cardiac myoblasts; assay: H9c2 cell protection from H2O2-mediated oxidative stress, CCK-8; assay type: cell-based, rat; details: then H2O2 200 μM
Protocol: The cytoprotective effects of 1a was then measured against oxidative stress.
H9c2 embryonic rat heart myoblasts were obtained from the American Type Culture Collection. Cells were grown in Dulbecco's minimal essential medium (DMEM), supplemented with fetal bovine serum (FBS) 10%, penicillin 100 U/mL and streptomycin 100 μg/mL. They were propagated in T75-flasks, split before reaching 70-80% confluence (usually every day or every second day), and used within 11 passages. Cells were passaged to tissue culture treated 96-well microtiter plates at the specified density in 180 μL volumes and incubated for 24 h.
Cells were seeded at a density of 5×10^3 cells/well. After 24 h, precursor 1a or by-product 4a was added at 20 μL volumes using DMSO:H2O (<0.01% DMSO as the vehicle). Cells were incubated for 2 h before media was removed and the cells gently washed with PBS (pH 7.4). Then, 180 μL of fresh media and 20 μL H2O2 diluted into H2O were added and cells were incubated for an additional 2 h. At the completion of H2O2 exposure, each well is carefully washed 3 times with PBS (pH 7.4) before adding 100 μL of media, without-FBS, containing 10% v/v CCK-8 (Dojindo) and incubated for 3 h prior to obtaining absorbance values at 450 nm. The relative % viability was calculated as 100 times the ratio of the Abs450 (pre-treated, H2O2-exposed) over Abs450 (vehicle-treated, non H2O2-exposed).

[4] = test system: FA fibroblasts; assay: Lipid peroxidation, C11-BODIPY (581/591) flow cytometry; assay type: cell-based, human; details: 50 μM pre-treatment for 4 h, erastin 10 μM
Text: Blue represents DMSO-treated cells, red represents erastin treated cells, and green represents reduction of lipid peroxidation in live cells pretreated with AST;
The reduction of FXN levels in FA increases mitochondrial iron accumulation, ultimately leading to iron-dependent accumulation of lipid ROS and subsequent lipid peroxidation. […] As has been reported previously, we employed C11-BODIPY (581/591) to monitor a shift in fluorescence of oxidized C11-BODIPY. […] Dixon et al., 2012; Martinez et al., 2020.

[5] = test system: H9c2 cardiac myoblasts; assay: Intracellular sulfane sulfur detection using the SSP4 probe; assay type: cell-based, rat; set-up: SSP4 fluorescence signal (intracellular sulfane sulfur): dose or concentration left out as unconfirmed
Protocol: Increased intracellular RSSH levels resulting from incubation with 1a utilizing SSP4, a fluorescent probe that has been used to detect of intracellular sulfane sulfur, Chen et al., 2013; Marutani et al., 2014, also was tested. Sulfane sulfur refers to a sulfur atom with six valence electrons and no charge. Biologically important sulfane sulfur compounds include RSSH, polysulfides (RSnSH or RSSnSR, n≥1), inorganic polysulfides (HSSnH, n≥1), and elemental sulfur (S8). Briefly, cells were incubated with SSP4 in the presence of cetrimonium bromide (CTAB) for 20 min and then washed with serum-free media before 1a is introduced. A significant increase of the SSP4 fluorescence signal was not observed following treatment with […] 1a due to the low amount of RSSH released at this concentration falling below the detection limit of the probe (FIG. 6). […] Since the SSP4 probe is known to react with a variety of sulfane sulfur species, the fluorescence signal observed upon treatment of 1a is likely due to RSSH and/or other sulfane sulfur species that might be present in the equilibrium with RSSH (e.g., Scheme 1-5). Thus, it is thought that the cytoprotective effects of 1a are attributed to increasing sulfane sulfur pools within the cultured cells.
Cells were seeded at a density of 1.5×10^4 cells/well. […] The fluorescence readings were obtained at 482Ex/515Em.

[6] = 10 equiv MMTS, PBS pH 7.4, 100 mM

## COC(=O)C(NC(C)=O)C(C)(C)SSC(=O)Oc1ccccc1 (stereo not shown) [Precursor 1a, Methyl 2-acetamido-3-methyl-3-((phenoxycarbonyl)disulfaneyl)butanoate]
[1]; [6]
  first-order rate constant k, disappearance of precursor: 0.00539 min⁻¹
  first-order rate constant k, formation of phenol: 0.00533 min⁻¹
[1]; pH 6.0
  t1/2 of hydrolysis: 26.65 ± 0.8 h
[1]; pH 8.0
  t1/2 of hydrolysis: 0.617 ± 0.05 h
[2]
  cytoprotection against H2O2 stress: attenuated
[3]; pre-treatment 4 h
  cytoprotection against H2O2-induced toxicity: dose-dependent decrease of H2O2-induced toxicity
[3]; pre-treatment with 5 μM for 8 h
  cytoprotection against H2O2-induced toxicity: shows protection
[4]
  erastin-induced lipid peroxide levels: attenuated erastin-induced lipid peroxide levels
[5]
  SSP4 fluorescence signal (intracellular sulfane sulfur): not observed
[5]; 100 and 200 mM, over a period of 3 h
  SSP4 fluorescence intensity (intracellular sulfane sulfur): Dose-dependent increases in fluorescence intensity
